What was measured:
Format in all cases: in vivo
Aphiscraccivora = test: Insecticidal activity, dipping method
Method: (§1) The insecticidal activity of sulfonyl functional compounds in the above embodiments were tested for agricultural biological functions, and the targets of insecticidal activity were Heliothis armigera, Plutella xylostella and Aphiscraccivora.
(§2) The insecticidal activity of sulfonyl functional compounds against Aphiscraccivora was tested by the method of dipping. Mother liquors were prepared by the sulfonyl functional compounds provided in the above embodiments dissolved in ethanol, respectively. 500 mg/L, 250 mg/L or 125 mg/L test solution could be prepared by diluting the different mother liquors with a liquor that contained 0.1 mL/L of emulgator (Tween-80). Every test solution was tested twice (Rep1 and Rep2). A blank control was set up, and the activity results were compared with the blank control. The mortality rate of 0˜30%, 30˜50%, 50-70%, 70˜90%, or 90˜100% could be orderly set as 0, 3, 5, 7, or 9.

Plutella xylostella = test: Insecticidal activity, artificial feed surface coating method
Method: as §1
(§3) Using Heliothis armigera and Plutella xylostella as target, the insecticidal activities of sulfonyl functional compounds were tested by conventional artificial feed surface coating method. 300 microliters of artificial feed and 20 microliters of test solution were added to each well of the 24-well cell culture plate. The test solution was used in different concentrations and repeated twice (Rep1 and Rep2). The concentrations of the test solution were 500 mg/L, 250 mg/L and 125 mg/L, respectively.
as §2

Heliothis armigera = test: as above
Method: as §1, §3, §2

| Structure (SMILES) | Insecticidal activity (mortality rate grade) Aphiscraccivora (Aphiscraccivora; 125 mg/L test solution) | Insecticidal activity (mortality rate grade) Aphiscraccivora (Aphiscraccivora; 250 mg/L test solution) | Insecticidal activity (mortality rate grade) Aphiscraccivora (Aphiscraccivora; 500 mg/L test solution) | Insecticidal activity (mortality rate grade) Plutella xylostella (Plutella xylostella; 125 mg/L test solution) | Insecticidal activity (mortality rate grade) Plutella xylostella (Plutella xylostella; 250 mg/L test solution) | Insecticidal activity (mortality rate grade) Plutella xylostella (Plutella xylostella; 500 mg/L test solution) | Insecticidal activity (mortality rate grade) Heliothis armigera (Heliothis armigera; 125 mg/L test solution) | Insecticidal activity (mortality rate grade) Heliothis armigera (Heliothis armigera; 250 mg/L test solution) | Insecticidal activity (mortality rate grade) Heliothis armigera (Heliothis armigera; 500 mg/L test solution) |
| --- | --- | --- | --- | --- | --- | --- | --- | --- | --- |
| CCC(=O)N1N=C(C)CN(N=Cc2ccc[n+](CC=CS(=O)(=O)[O-])c2)C1=O [IV-7] | 5 (50-70%) | 7 (70˜90%) | 9 (90˜100%) | 0 (mortality rate of 0˜30%) | 0 (mortality rate of 0˜30%) | 3 (30˜50%) | 0 (mortality rate of 0˜30%) | 0 (mortality rate of 0˜30%) | 0 (mortality rate of 0˜30%) |
| CC1=NNC(=O)N(N=Cc2ccc[n+](CCCCS(=O)(=O)[O-])c2)C1 [IV-3] | 9 (90˜100%) | 9 (90˜100%) | 9 (90˜100%) | 0 (mortality rate of 0˜30%) | 3 (30˜50%) | 3 (30˜50%) | 0 (mortality rate of 0˜30%) | 0 (mortality rate of 0˜30%) | 3 (30˜50%) |

Source: US20250084061A1, “SULFONYL FUNCTIONAL COMPOUND, METHODS AND USES THEREOF” (Hubei Biopesticide Engineering Research Centre, priority 2023, published 2025)
